# Where two headings read alike, the source gives them in different places.
# What was measured:
# [1] = system: E. coli S30 extract system, coupled in vitro transcription/translation, firefly luciferase readout; test: In vitro transcription/translation (TnT) assay; format: biochemical; settings: for IC50, in vitro transcription/translation system: E. coli S30 extract, luciferase readout
# [2] = system: S. pneumoniae clinical isolates; test: MIC50, MIC90 and MIC range, panel of clinical isolates (Example 20); format: cell-based; settings: 19 isolates
# Procedure: (§1) The assays were run as follows.
# (§2) Both values, as well as the MIC range (the lowest and highest MIC value observed for a collection of organisms), were determined for the isolates listed in Table 3.
# [3] = system: E. faecalis clinical isolates; test: as above; format: cell-based; settings: 24 isolates, in µg/mL
# Procedure: as §1, §2
# [4] = system: S. aureus clinical isolates; test: as above; format: cell-based; settings: MRSA, 30 isolates; in µg/mL
# Procedure: as §1, §2
# [5] = system: E. coli DH10B(pBAD-tetM), expressing tet(M); test: MIC against recombinant E. coli expressing tet(M); format: cell-based; settings: for MIC: Escherichia coli
# Source text: (§3) Constructs were transformed into E. coli DH10B for expression. Recombinant strains were pre-induced under optimized conditions with L-arabinose prior to use as inocula in CLSI standardized MIC assays.
# [6] = system: E. coli DH10B(pBAD-tetK), expressing tet(K); test: MIC against recombinant E. coli expressing tet(K); format: cell-based; settings: Escherichia coli
# Source text: as §3
# [7] = system: Staphylococcus aureus SA158, tetracycline-resistant tet(K); test: MIC assay, SA158; format: cell-based; settings: Table 8, read-out: MIC S. aureus tetK
# [8] = system: Streptococcus pneumoniae SP106, ATCC 49619; test: MIC assay, SP106; format: cell-based; settings: ATCC49619, Table 8, read-out: MIC S. pneumoniae ATCC 49619
# [9] = system: Staphylococcus aureus SA161, HA-MRSA, tetracycline-resistant, tet(M); test: MIC assay, SA161; format: cell-based; settings: Table 8, read-out: MIC S. aureus MRSA, tetM
# [10] = system: Escherichia coli EC155, tetracycline-resistant, tet(A); test: MIC assay, EC155; format: cell-based; settings: Table 8, read-out: MIC E. coli tetA
# [11] = system: Streptococcus pneumoniae SP160, tetracycline-resistant, tet(M); test: MIC assay, SP160; format: cell-based; settings: Table 8, read-out: MIC S. pneumoniae tetM
# [12] = system: Staphylococcus aureus SA101, ATCC 29213, MSSA; test: MIC assay, SA101; format: cell-based; settings: Table 8, read-out: MIC S. aureus ATCC 29213
# [13] = system: Escherichia coli EC107, ATCC 25922; test: MIC assay, EC107; format: cell-based
# [14] = system: Enterococcus faecalis EF159, tetracycline-resistant, tet(M); test: MIC assay, EF159; format: cell-based; settings: Table 8, read-out: MIC E. faecalis tetM
# [15] = system: Enterococcus faecalis EF103, ATCC 29212; test: MIC assay, EF103; format: cell-based; settings: Enterococcus faecalis, ATCC29212; Table 8; read-out: MIC E. faecalis ATCC 29212
# [16] = system: E. coli ATCC 25922; test: Mouse systemic infection model, E. coli septicemia; settings: mouse septicemia, E. coli ATCC 25922, treatment one hour post-challenge, survival after 48 hours
# [17] = system: S. aureus ATCC 13709 (Smith); test: Mouse systemic infection model, S. aureus septicemia; settings: mouse septicemia, S. aureus ATCC 13709, intravenous treatment one hour post-challenge, survival after 48 hours
# [18] = system: Staphylococcus aureus SA100, ATCC 13709, MSSA, Smith strain; test: MIC assay, SA100; format: cell-based; settings: read-out: MIC S. aureus ATCC 13709
# [19] = ATCC25922, Table 8, read-out: MIC E. coli ATCC 25922
smiles,measurement,setting,value
CN(C)CCCNc1nc(Cl)c2c(c1O)C(=O)C1=C(O)[C@]3(O)C(=O)C(C(N)=O)=C(O)[C@@H](N(C)C)[C@@H]3C[C@@H]1C2 [Compound 119],TnT IC50,[1],0.58 µg/mL
same,"IC50, in vitro transcription/translation system",[1],sub-μg/ml
CCCc1nc(N(C)C)c2c(c1O)C(=O)C1=C(O)[C@]3(O)C(=O)C(C(N)=O)=C(O)[C@@H](N(C)C)[C@@H]3C[C@@H]1C2 [Compound 141],MIC Range,[2]; in µg/mL,0.25-8
same,MIC Range,[3],1-8
same,MIC Range,[4],2-4
same,MIC,"[5]; read-out: MIC, TetM induced",32 µg/mL
same,MIC,"[5]; read-out: MIC, Uninduced",32 µg/mL
same,Ratio (TetM induced / Uninduced),[5]; ratio of MICs,1
same,MIC,"[6]; read-out: MIC, TetK Induced",32 µg/mL
same,MIC,"[6]; read-out: MIC, Uninduced",> 32 µg/mL
CCCc1nc(Cl)c2c(c1O)C(=O)C1=C(O)[C@]3(O)C(=O)C(C(N)=O)=C(O)[C@@H](N(C)C)[C@@H]3C[C@@H]1C2 [Compound 104],TnT IC50,[1],5.3 µg/mL
CN(C)[C@@H]1C(O)=C(C(N)=O)C(=O)[C@@]2(O)C(O)=C3C(=O)c4c(O)c(N)nc(Cl)c4C[C@H]3C[C@@H]12 [Compound 147],TnT IC50,[1],1.1 µg/mL
"CN(C)c1ccc(O)c2c1C[C@H]1C[C@H]3[C@H](N(C)C)C(O)=C(C(N)=O)C(=O)[C@@]3(O)C(O)=C1C2=O [minocycline, reference compound]",MIC,[7],0.03 µg/mL
same,MIC,[8],≤ 0.016 µg/mL
same,MIC,[9],8 µg/mL
same,MIC,[10],8 µg/mL
same,MIC,[11],2 µg/mL
same,MIC,[12],0.06 µg/mL
same,MIC,[13]; [19],0.5 µg/mL
same,MIC,[14],16 µg/mL
CN(C)[C@@H]1C(O)=C(C(N)=O)C(=O)[C@@]2(O)C(O)=C3C(=O)c4c(O)cnc(Cl)c4C[C@H]3C[C@@H]12 [Compound 123],MIC,[7],32 µg/mL
same,MIC,[8],1 µg/mL
same,MIC,[9],32 µg/mL
same,MIC,[10],> 32 µg/mL
same,MIC,[15],32 µg/mL
same,MIC,[11],32 µg/mL
same,MIC,[12],1 µg/mL
same,MIC,[13]; [19],2 µg/mL
same,MIC,[14],> 32 µg/mL
"CN(C)c1cc(NC(=O)CNC(C)(C)C)c(O)c2c1C[C@H]1C[C@H]3[C@H](N(C)C)C(O)=C(C(N)=O)C(=O)[C@@]3(O)C(O)=C1C2=O [tigecycline, reference compound]",MIC Range,[2],≦0.016
same,MIC Range,[3],<=0.016-0.13
same,MIC Range,[4],0.063-0.25
same,TnT IC50,[1],0.47 µg/mL
same,PD50,[16],2.1 mg/kg
same,PD50,[17],0.35 mg/kg
same,MIC,[18],0.13 µg/mL
same,MIC,"[13]; ATCC25922, read-out: MIC E. coli ATCC 25922",0.13 µg/mL
CN(C)[C@@H]1C(O)=C(C(N)=O)C(=O)[C@@]2(O)C(O)=C3C(=O)c4c(O)c(NC(=O)CNC(C)(C)C)nc(Cl)c4C[C@H]3C[C@@H]12 [Compound 132],TnT IC50,[1],0.78 µg/mL
same,"IC50, in vitro transcription/translation system",[1],sub-μg/ml
